# pIC50: −log10 of the molar value.
# Target: ROCK2 (Homo sapiens, UniProt O75116)
# Assay: ROCK assay: phosphorylation of FITC peptide substrate, LABCHIP 3000 mobility shift
# Type: biochemical
# Conditions: 5 μM ATP, 1.5 μM peptide substrate; read-out: ROCK2 Activity (ROCK IC50 range)
# Procedure, shortened: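 Rho kinase variant phosphorylates 1.5 μM FITC-AHA-AKRRRLSSLRA-OH with 5 μM ATP in 20 mM HEPES pH 7.5, 20 mM MgCl2, 0.015% Brij-35, 4 mM DTT, DMSO <2%. EDTA stops the reaction, and phospho and non-phospho peptides are resolved by LabChip 3000 mobility shift. IC50 from dose-response curve fit.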
# Sequence of ROCK2 (O75116 whole entry, species assumed): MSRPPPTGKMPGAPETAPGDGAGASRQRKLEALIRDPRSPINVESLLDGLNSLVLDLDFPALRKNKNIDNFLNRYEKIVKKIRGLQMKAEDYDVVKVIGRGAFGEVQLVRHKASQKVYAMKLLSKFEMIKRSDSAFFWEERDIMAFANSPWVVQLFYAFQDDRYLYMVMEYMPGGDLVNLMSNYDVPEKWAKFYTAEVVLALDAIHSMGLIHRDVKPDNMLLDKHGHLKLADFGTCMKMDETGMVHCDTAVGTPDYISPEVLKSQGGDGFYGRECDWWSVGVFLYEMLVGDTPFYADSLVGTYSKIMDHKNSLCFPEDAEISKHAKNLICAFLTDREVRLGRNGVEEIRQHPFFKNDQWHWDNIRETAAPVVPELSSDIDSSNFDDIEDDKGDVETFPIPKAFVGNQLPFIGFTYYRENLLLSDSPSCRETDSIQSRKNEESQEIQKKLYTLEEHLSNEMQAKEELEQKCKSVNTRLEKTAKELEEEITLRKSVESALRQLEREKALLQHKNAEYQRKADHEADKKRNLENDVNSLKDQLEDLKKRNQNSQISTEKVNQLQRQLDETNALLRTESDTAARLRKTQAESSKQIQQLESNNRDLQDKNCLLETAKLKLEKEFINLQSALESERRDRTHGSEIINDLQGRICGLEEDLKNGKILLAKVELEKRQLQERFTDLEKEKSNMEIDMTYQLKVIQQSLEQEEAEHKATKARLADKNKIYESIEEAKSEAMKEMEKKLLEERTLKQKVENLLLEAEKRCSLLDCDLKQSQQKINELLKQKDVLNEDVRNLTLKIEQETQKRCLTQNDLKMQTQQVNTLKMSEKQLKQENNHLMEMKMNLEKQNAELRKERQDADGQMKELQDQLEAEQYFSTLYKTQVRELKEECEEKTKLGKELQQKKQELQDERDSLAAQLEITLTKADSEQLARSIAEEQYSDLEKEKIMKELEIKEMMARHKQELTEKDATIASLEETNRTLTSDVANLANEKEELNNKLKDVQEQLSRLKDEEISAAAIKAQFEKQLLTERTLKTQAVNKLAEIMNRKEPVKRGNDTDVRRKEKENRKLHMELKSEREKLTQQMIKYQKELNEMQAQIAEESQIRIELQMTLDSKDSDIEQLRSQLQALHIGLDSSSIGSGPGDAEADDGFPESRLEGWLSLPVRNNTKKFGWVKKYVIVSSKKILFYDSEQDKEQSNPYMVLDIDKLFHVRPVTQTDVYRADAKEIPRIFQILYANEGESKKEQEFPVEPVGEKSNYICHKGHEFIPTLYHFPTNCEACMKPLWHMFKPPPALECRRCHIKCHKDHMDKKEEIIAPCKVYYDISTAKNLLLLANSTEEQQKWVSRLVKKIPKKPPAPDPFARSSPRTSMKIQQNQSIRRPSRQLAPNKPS
row,Structure (SMILES),pIC50
1,"[H][C@]1(c2n[nH]c(=O)c3ccccc32)C[C@]2(C[C@@H](NC(=O)c3ccc(Br)cc3)C2)C1 (stereo partly drawn) [Example 331, 4-bromo-N-((aR)-6-(4-oxo-3,4-dihydrophthalazin-1-yl)spiro[3.3]heptan-2-yl)benzamide]",7.82 to 8.29
2,"Cn1nc(C(F)(F)F)cc1C(=O)NC1CC2(C1)CC(c1n[nH]c(=O)c3ccccc13)C2 [Example 25, 1-methyl-N-[(aR)-6-(4-oxo-3,4-dihydrophthalazin-1-yl)spiro[3.3]heptan-2-yl]-3-(trifluoromethyl)-1H-pyrazole-5-carboxamide]",7.82 to 8.29
3,"O=C(NC1CC2(C1)CC(c1n[nH]c(=O)c3ccccc13)C2)c1cnn(C2CC2)c1 [Example 27, 1-cyclopropyl-N-[(aR)-6-(4-oxo-3,4-dihydrophthalazin-1-yl)spiro[3.3]heptan-2-yl]-1H-pyrazole-4-carboxamide]",7.82 to 8.29
4,"O=C(NC1CC2(C1)CC(c1n[nH]c(=O)c3ccccc13)C2)c1cnn2cc(-n3ccnc3)ccc12 (stereo not drawn) [Example 176, 6-(1H-imidazol-1-yl)-N-((αR)-6-(4-oxo-3,4-dihydrophthalazin-1-yl)spiro[3.3]heptan-2-yl)pyrazolo[1,5-α]pyridine-3-carboxamide]",7.82 to 8.29
5,"O=C(N[C@H]1CC2(C1)C[C@H](c1n[nH]c(=O)c3ccccc31)C2)c1cnn2cc(OC[C@@H](O)C(F)(F)F)ccc12 (stereo partly drawn) [Example 120, N-((aR)-6-(4-oxo-3,4-dihydrophthalazin-1-yl)spiro[3.3]heptan-2-yl)-6-(3,3,3-trifluoro-2-hydroxypropoxy)pyrazolo[1,5-a]pyridine-3-carboxamide]",8.70 to 9.70
6,"COCC(O)COc1ccn2ncc(C(=O)NC3CC4(C3)CC(c3n[nH]c(=O)c5ccccc35)C4)c2c1 [Example 75, 5-(2-hydroxy-3-methoxypropoxy)-N-((aR)-6-(4-oxo-3,4-dihydrophthalazin-1-yl)spiro[3.3]heptan-2-yl)pyrazolo[1,5-a]pyridine-3-carboxamide]",7.00 to 7.82
7,"[H][C@]1(c2n[nH]c(=O)c3ccccc32)C[C@]2(C[C@@H](NC(=O)c3ccc(-c4cnn(CC)c4)c(F)c3)C2)C1 (stereo partly drawn) [Example 445, 4-(1-ethyl-1H-pyrazol-4-yl)-3-fluoro-N-((aR)-6-(4-oxo-3,4-dihydrophthalazin-1-yl)spiro[3.3]heptan-2-yl)benzamide]",7.00 to 7.82
8,"[H][C@]1(c2n[nH]c(=O)c3ccccc32)C[C@]2(C[C@@H](NC(=O)c3cnc4c(F)cc(C(F)(F)F)cn34)C2)C1 (stereo partly drawn) [Example 404, 8-fluoro-N-((aR)-6-(4-oxo-3,4-dihydrophthalazin-1-yl)spiro[3.3]heptan-2-yl)-6-(trifluoromethyl)imidazo[1,2-a]pyridine-3-carboxamide]",7.00 to 7.82
9,"Cc1sc(N2CCC(C#N)C2)nc1C(=O)NC1CC2(C1)CC(c1n[nH]c(=O)c3ccccc13)C2 [Example 56, 2-((R)-3-cyanopyrrolidin-1-yl)-5-methyl-N-((aR)-6-(4-oxo-3,4-dihydrophthalazin-1-yl)spiro[3.3]heptan-2-yl)thiazole-4-carboxamide]",7.82 to 8.29
10,"Cc1nc(N2CCC(C#N)C2)sc1C(=O)NC1CC2(C1)CC(c1n[nH]c(=O)c3ccccc13)C2 [Example 38, 2-[(3S)-3-cyanopyrrolidin-1-yl]-4-methyl-N-[(aR)-6-(4-oxo-3,4-dihydrophthalazin-1-yl)spiro[3.3]heptan-2-yl]-1,3-thiazole-5-carboxamide]",7.82 to 8.29
11,"COCc1c(OCC(C)(C)O)ccc2c(C(=O)NC3CC4(C3)CC(c3n[nH]c(=O)c5ccccc35)C4)cnn12 [Example 113, 6-(2-hydroxy-2-methylpropoxy)-7-(methoxymethyl)-N-((aR)-6-(4-oxo-3,4-dihydrophthalazin-1-yl)spiro[3.3]heptan-2-yl)pyrazolo[1,5-a]pyridine-3-carboxamide]",8.30 to 8.70

# Now from value to molecule:
row,pIC50,Structure (SMILES)
1,8.30 to 8.70,"[H][C@]1(c2n[nH]c(=O)c3ccccc32)C[C@]2(C[C@@H](NC(=O)c3cc4cc(F)cc(S(C)(=O)=O)c4[nH]3)C2)C1 (stereo partly drawn) [Example 335, 5-fluoro-7-(methylsulfonyl)-N-((aR)-6-(4-oxo-3,4-dihydrophthalazin-1-yl)spiro[3.3]heptan-2-yl)-1H-indole-2-carboxamide]"
2,8.30 to 8.70,"O=C(N[C@H]1CC2(C1)C[C@H](c1n[nH]c(=O)c3ccccc31)C2)c1ccn(CC(F)F)n1 (single isomer, unassigned) [Example 16]"
3,8.70 to 9.70,"[H][C@]1(c2n[nH]c(=O)c3ccccc32)C[C@@]2(C[C@H](NC(=O)c3cnc4cc(N5CC[C@@H](F)C5)ccn34)C2)C1 (stereo partly drawn) [Example 393, 7-((R)-3-fluoropyrrolidin-1-yl)-N-((aR)-6-(4-oxo-3,4-dihydrophthalazin-1-yl)spiro[3.3]heptan-2-yl)imidazo[1,2-a]pyridine-3-carboxamide]"
4,8.30 to 8.70,"[H][C@]1(c2n[nH]c(=O)c3ccccc32)C[C@]2(C[C@@H](NC(=O)c3cc4cccc(Cl)c4n3C)C2)C1 (stereo partly drawn) [Example 301, 7-chloro-1-methyl-N-((aR)-6-(4-oxo-3,4-dihydrophthalazin-1-yl)spiro[3.3]heptan-2-yl)-1H-indole-2-carboxamide]"
5,8.30 to 8.70,COC(=O)N1CC(Oc2ccc3c(C(=O)NC4CC5(C4)CC(c4n[nH]c(=O)c6ccccc46)C5)cnn3c2)C1 (centres unmarked) [Example 136]
6,8.30 to 8.70,"CC(C)(O)Cn1nc(C(=O)N[C@H]2CC3(C2)C[C@H](c2n[nH]c(=O)c4ccccc42)C3)c2ccc(-c3ccccc3)cc21 (stereo partly drawn) [Example 143, 1-(2-hydroxy-2-methylpropyl)-N-((aR)-6-(4-oxo-3,4-dihydrophthalazin-1-yl)spiro[3.3]heptan-2-yl)-6-phenyl-1H-indazole-3-carboxamide]"
7,8.70 to 9.70,[H][C@]1(c2n[nH]c(=O)c3ccccc32)C[C@]2(C[C@@H](NC(=O)c3cnn4cc(OCCO)ccc34)C2)C1 (some centres unmarked) [Example 181]
8,8.30 to 8.70,"O=C(NC1CC2(C1)CC(c1n[nH]c(=O)c3ccccc13)C2)c1cnn2cc(N3CCOCC3)ccc12 [Example 76, 6-morpholino-N-((aR)-6-(4-oxo-3,4-dihydrophthalazin-1-yl)spiro[3.3]heptan-2-yl)pyrazolo[1,5-a]pyridine-3-carboxamide]"
9,8.70 to 9.70,"O=C(NC1CC2(C1)CC(c1n[nH]c(=O)c3ccccc13)C2)c1cnn2cc(C3CC3)ccc12 (stereo not drawn) [Example 166, 6-cyclopropyl-N-((αR)-6-(4-oxo-3,4-dihydrophthalazin-1-yl)spiro[3.3]heptan-2-yl)pyrazolo[1,5-α]pyridine-3-carboxamide]"
10,8.30 to 8.70,"O=C(N[C@H]1CC2(C1)C[C@H](c1n[nH]c(=O)c3ccccc31)C2)c1cnn2cc(OCCN3CC(F)C3)ccc12 (stereo partly drawn) [Example 182, 6-(2-(3-fluoroazetidin-1-yl)ethoxy)-N-((aR)-6-(4-oxo-3,4-dihydrophthalazin-1-yl)spiro[3.3]heptan-2-yl)pyrazolo[1,5-a]pyridine-3-carboxamide]"
11,8.70 to 9.70,"O=C(NC1CC2(C1)CC(c1n[nH]c(=O)c3ccccc13)C2)c1cnn2cc(-c3cn[nH]c3)ccc12 (stereo not drawn) [Example 174, N-((αR)-6-(4-oxo-3,4-dihydrophthalazin-1-yl)spiro[3.3]heptan-2-yl)-6-(1H-pyrazol-4-yl)pyrazolo[1,5-α]pyridine-3-carboxamide]"
12,8.70 to 9.70,"CC(C)n1cc(-c2ccc3c(C(=O)NC4CC5(C4)CC(c4n[nH]c(=O)c6ccccc46)C5)cnn3c2)c(C(F)(F)F)n1 [Example 224, 6-(1-isopropyl-3-(trifluoromethyl)-1H-pyrazol-4-yl)-N-((aR)-6-(4-oxo-3,4-dihydrophthalazin-1-yl)spiro[3.3]heptan-2-yl)pyrazolo[1,5-a]pyridine-3-carboxamide]"
